{
  "source": "paper PMC10518255",
  "about": "“A first-in-class pan-lysyl oxidase inhibitor impairs stromal remodeling and enhances gemcitabine response and survival in pancreatic cancer” (Nature Cancer, 2023)",
  "key": {"[1]": {"molecular_target": "T1, DAO (Homo sapiens, UniProt P19801)", "T1 sequence (P19801 20-751)": "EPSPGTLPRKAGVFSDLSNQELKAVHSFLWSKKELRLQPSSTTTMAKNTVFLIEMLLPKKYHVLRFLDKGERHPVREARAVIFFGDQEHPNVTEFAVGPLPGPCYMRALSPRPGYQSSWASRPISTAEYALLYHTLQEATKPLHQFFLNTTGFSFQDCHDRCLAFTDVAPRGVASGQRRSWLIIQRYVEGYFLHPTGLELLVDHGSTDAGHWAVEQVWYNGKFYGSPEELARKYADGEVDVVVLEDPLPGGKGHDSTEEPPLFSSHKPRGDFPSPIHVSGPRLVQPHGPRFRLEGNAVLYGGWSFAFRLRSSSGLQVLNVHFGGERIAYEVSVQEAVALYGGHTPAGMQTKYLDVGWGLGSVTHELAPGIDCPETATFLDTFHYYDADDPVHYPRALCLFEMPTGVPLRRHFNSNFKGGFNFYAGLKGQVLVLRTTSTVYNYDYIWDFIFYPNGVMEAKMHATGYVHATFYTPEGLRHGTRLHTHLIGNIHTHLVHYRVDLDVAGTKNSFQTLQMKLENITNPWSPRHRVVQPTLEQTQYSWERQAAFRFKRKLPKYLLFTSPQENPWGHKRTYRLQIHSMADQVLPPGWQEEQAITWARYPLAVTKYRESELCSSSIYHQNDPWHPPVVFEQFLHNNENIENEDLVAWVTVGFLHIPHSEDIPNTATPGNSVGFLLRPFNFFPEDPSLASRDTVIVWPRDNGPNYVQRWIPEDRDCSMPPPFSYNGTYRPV", "assay": "IC50 determination against other human amine oxidases", "assay_type": "biochemical", "description": "(§1) Data are presented as mean ± s.d. […] Data presented as mean ± s.d. […] Source data TEXT PRINTED IN THE PICTURE: (b) PXS-5505: Recombinant DAO IC50 (nM): >30,000; Recombinant SSAO/VAP1 IC50 (nM): >30,000; Recombinant MAO-A IC50 (nM): >30,000; Recombinant MAO-B IC50 (nM): >30,000 | (f) PXS-5505: Fibroblast LOX IC50 (nM): 4,930; Recombinant LOXL-1 IC50 (nM): 1,590; Recombinant LOXL-2 IC50 (nM): 570; Recombinant LOXL-3 IC50 (nM): 1,800; Recombinant LOXL-4 IC50 (nM): 190"}, "[2]": {"molecular_target": "Recombinant MAO-A (Homo sapiens, UniProt P21397)", "sequence (P21397 whole entry)": "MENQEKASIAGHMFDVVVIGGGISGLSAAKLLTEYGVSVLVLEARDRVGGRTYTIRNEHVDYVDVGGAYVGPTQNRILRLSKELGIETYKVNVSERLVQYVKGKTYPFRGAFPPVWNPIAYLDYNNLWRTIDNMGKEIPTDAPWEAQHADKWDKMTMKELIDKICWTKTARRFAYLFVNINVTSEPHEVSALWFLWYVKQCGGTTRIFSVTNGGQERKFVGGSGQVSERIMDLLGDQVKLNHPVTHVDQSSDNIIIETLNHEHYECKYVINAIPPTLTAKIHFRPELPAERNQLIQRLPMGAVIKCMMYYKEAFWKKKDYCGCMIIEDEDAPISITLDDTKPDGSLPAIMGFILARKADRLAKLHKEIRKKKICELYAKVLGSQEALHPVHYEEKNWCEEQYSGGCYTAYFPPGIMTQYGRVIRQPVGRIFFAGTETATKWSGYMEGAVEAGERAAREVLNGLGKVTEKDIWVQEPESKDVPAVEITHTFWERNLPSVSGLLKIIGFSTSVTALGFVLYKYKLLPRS", "assay": "IC50 determination against other human amine oxidases", "assay_type": "biochemical", "description": "as §1"}, "[3]": {"molecular_target": "Recombinant MAO-B (Homo sapiens, UniProt P27338)", "sequence (P27338 whole entry)": "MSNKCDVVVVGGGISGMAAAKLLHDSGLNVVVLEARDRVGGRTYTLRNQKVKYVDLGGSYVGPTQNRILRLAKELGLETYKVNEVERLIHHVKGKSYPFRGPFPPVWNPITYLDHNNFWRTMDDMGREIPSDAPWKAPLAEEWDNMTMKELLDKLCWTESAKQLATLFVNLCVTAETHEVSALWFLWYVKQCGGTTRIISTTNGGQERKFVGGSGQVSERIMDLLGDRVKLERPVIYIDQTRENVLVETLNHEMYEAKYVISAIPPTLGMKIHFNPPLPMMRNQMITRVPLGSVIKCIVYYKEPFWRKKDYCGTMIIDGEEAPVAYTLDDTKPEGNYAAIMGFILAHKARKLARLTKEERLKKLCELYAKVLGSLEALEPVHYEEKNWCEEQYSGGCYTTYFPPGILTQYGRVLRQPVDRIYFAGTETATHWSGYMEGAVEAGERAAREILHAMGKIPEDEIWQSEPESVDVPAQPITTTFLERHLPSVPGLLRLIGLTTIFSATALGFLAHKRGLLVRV", "assay": "IC50 determination against other human amine oxidases", "assay_type": "biochemical", "description": "as §1"}, "[4]": {"molecular_target": "Recombinant SSAO/VAP1 (Homo sapiens, UniProt Q16853)", "sequence (Q16853 whole entry)": "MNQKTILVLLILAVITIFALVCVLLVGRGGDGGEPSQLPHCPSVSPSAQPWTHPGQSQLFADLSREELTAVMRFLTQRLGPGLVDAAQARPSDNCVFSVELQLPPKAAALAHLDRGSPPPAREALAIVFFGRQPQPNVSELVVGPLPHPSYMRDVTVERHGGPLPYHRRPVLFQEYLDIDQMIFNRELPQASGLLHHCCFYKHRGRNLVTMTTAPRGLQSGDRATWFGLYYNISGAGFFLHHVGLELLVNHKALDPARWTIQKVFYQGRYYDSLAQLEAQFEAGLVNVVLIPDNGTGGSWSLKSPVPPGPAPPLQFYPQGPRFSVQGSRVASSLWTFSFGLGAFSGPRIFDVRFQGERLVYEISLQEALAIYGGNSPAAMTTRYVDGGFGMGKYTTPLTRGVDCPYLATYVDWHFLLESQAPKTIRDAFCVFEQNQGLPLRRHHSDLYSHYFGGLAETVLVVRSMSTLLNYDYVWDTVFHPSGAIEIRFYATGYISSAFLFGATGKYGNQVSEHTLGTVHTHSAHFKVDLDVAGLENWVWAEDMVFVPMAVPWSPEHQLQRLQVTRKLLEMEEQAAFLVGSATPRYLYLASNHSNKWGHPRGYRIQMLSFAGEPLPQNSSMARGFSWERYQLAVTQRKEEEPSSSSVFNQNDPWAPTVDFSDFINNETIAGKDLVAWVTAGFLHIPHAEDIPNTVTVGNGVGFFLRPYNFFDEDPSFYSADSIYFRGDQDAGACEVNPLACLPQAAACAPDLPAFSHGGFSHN", "assay": "IC50 determination against other human amine oxidases", "assay_type": "biochemical", "description": "as §1"}, "[5]": {"tested_on": "standard panel of macromolecular targets", "assay": "Eurofins SafetyScreen44 off-target panel (enzyme and radioligand-binding assays)", "settings": "30 µM", "description": "To increase specificity for the lysyl oxidase family, the design of PXS-5505 (Supplementary Data 1–3) was based upon substrate analog fluoroallylamines. Variants of fluoroallylamines have previously been used in amine oxidase inhibitors, including those targeting LOXL2 and LOXL3 (ref. [31]). […] Importantly, PXS-5505 not only maintains the potent functional inhibition of LOXL2 but linkage to a quinoline moiety improves potency for all other lysyl oxidase family members and is key to the superiority of PXS-5505 (Fig. 2a). PXS-5505 is the free base of the active principle, which is suitably isolated as a dihydrochloride salt."}, "[6]": {"tested_on": "Lysyl oxidase family activity in aorta", "assay": "Target engagement: lysyl oxidase family activity in freshly excised aorta, fluorometric activity assay (Fig. 2h)", "assay_type": "in vivo, rat", "set-up": "Lysyl oxidase family activity in freshly excised aorta: unit not given here", "settings": "for Lysyl oxidase family activity in freshly excised aorta: single 30 mg/kg oral, individual samples, 30 mg/kg", "protocol": "Data are presented as mean ± s.d. Two-tailed P value determined by unpaired, nonparametric t-test with a Mann–Whitney U-test correction (comparison to PBS control). h, Lysyl oxidase family activity measured in freshly excised aorta determined by fluorometric activity assay n = 19 (PBS), 5 (4–120 h) biological independent samples. Data presented as mean ± s.d. Two-tailed P value determined by unpaired, nonparametric t-test with a Mann–Whitney U-test correction (comparison to PBS control).\nTo confirm that PXS-5505 inhibits lysyl oxidase family enzymatic activity in tissues, target engagement experiments were performed following a single oral dose (30 mg kg^−1) in rats. […] Lysyl oxidase family activity was measured in two tissues; aorta (core tissue) and ear (peripheral tissue)."}, "[7]": {"tested_on": "collagen crosslinks (DHLNL, Pyr) in KPC CAF organotypic matrices", "assay": "Collagen crosslink quantification by LC-MS in organotypic matrices", "assay_type": "cell-based, mouse", "protocol": "Fig. 3 PXS-5505 inhibition of CAF remodeling in vitro. a, Quantitative PCR with reverse transcription (qRT–PCR) showing in vitro comparison of KPC CAF relative expression of lysyl oxidase family members compared to KPC CCs from the same model (n = 3 biologically independent samples). Comparisons were determined by 2^–∆∆Ct approach. b, Representative images of 3D organotypic matrix contraction assay at days 2, 6 and 12 in the absence (gray) or presence (pink) of PXS-5505 (30 µM). Scale bars, 5 mm. Comparison of measured area of matrices between control and PXS-5505 treatment groups over time (n = 3 technical samples examined over three biologically independent samples). Data are mean ± s.d. c, Concentration of immature divalent DHLNL and mature trivalent Pyr collagen crosslinks determined by LC–MS from control and PXS-5505-treated organotypic matrices at day 12 ([…]). Data are mean ± s.d. […] Data are presented as mean ± s.d. […] Comparison of number of CCs invaded per field of view (FOV) as determined by H&E and PanCK staining (nine images taken from three technical samples from each of three biologically independent contracted matrices), normalized to control. Data are mean ± s.d. Scale bars, 100 μm. […] Source data\nKPC CAFs embedded in 3D organotypic matrices remodel and crosslink them.\nCollagen matrices were freeze dried and reduced with NaBH4. The resulting pellet was hydrolyzed with 6 mol l^−1 HCl at 100 °C for 24 h. An automated solid phase extraction system (Gilson GX-271 ASPECA system) was used to extract hydroxyproline and crosslinks from the hydrolysate. The samples were analyzed for hydroxyproline crosslinks by a UHPLC–ESI–MS/MS on a Thermo Dionex UPHPLC and TSQ Endura triple quadmass spectrometer as previously published. The lower limit of detection was 0.013 pmol 10 µl^−1."}, "[8]": {"assay": "Preclinical genotoxicity and toxicity studies", "assay_type": "in vivo"}, "[9]": {"settings": "LC/MS, organotypic matrices at day 12, single replicates (3 biological x 2 technical)"}, "[10]": {"settings": "day 12, normalized to total collagen content"}},
  "note": "pIC50: −log10 of the molar value. Several values for one entry are separate records, joined by “and”; a condition that tells them apart may be missing. Equal values may be shown once.",
  "data": [
    {"compound": "Cl.Cl.NC/C=C(\\F)CS(=O)(=O)c1cccc2cccnc12.O", "note": "[PXS-5505, (Z)-3-fluoro-4-(quinolin-8-ylsulfonyl)but-2-en-1-amine dihydrochloride monohydrate]", "values": [
      {"measurement": "pIC50", "setting": "[1]", "value": "< 4.52"},
      {"measurement": "pIC50", "setting": "[2]", "value": "< 4.52"},
      {"measurement": "pIC50", "setting": "[3]", "value": "< 4.52"},
      {"measurement": "pIC50", "setting": "[4]", "value": "< 4.52"},
      {"measurement": "off-target activity against a standard panel of macromolecular targets", "setting": "[5]", "value": "does not show any significant off-target activity"},
      {"measurement": "recovery of lysyl oxidase family activity in the aorta, of initial activity", "setting": "[6]; rats, single 30 mg kg−1 oral, 24 h after dosing", "value": "approximately 50%"},
      {"measurement": "Lysyl oxidase family activity in freshly excised aorta", "setting": "[6]; rats, 4 h", "value": "15.4162 and 30.1157 and 25.1081 and 16.4125 and 13.2925"},
      {"measurement": "Lysyl oxidase family activity in freshly excised aorta", "setting": "[6]; rats, 24 h", "value": "54.6033 and 26.1568 and 51.6931 and 36.2595 and 23.1592"},
      {"measurement": "Lysyl oxidase family activity in freshly excised aorta", "setting": "[6]; rats, 48 h", "value": "62.6086 and 39.9999 and 48.7392 and 69.3553 and 56.8756"},
      {"measurement": "Lysyl oxidase family activity in freshly excised aorta", "setting": "[6]; rats, 120 h", "value": "94.5071 and 44.5094 and 104.61 and 70.2729 and 55.285"},
      {"measurement": "calculated block of all lysyl oxidase family activity", "setting": "[6]; single daily oral dose of 30 mg kg−1, over a 24-h period", "value": "> 70", "unit": "%"},
      {"measurement": "Concentration of immature divalent dihyroxylysinonorleucine (DHLNL) collagen cross-links", "setting": "[7]; [9]", "value": "2.81 pmol/mL and 3.555 pmol/mL and 2.615 pmol/mL and 4.105 pmol/mL and 3.075 pmol/mL and 4.4 pmol/mL"},
      {"measurement": "Concentration of mature trivalent hydroxylysylpyridinoline (Pyr, PYD) collagen cross-links", "setting": "[7]; [9]", "value": "4.5 pmol/mL and 5.52 pmol/mL and 3.85 pmol/mL and 8.4 pmol/mL and 6.325 pmol/mL and 6.2 pmol/mL"},
      {"measurement": "immature divalent DHLNL collagen crosslinks", "setting": "[7]; [10]", "value": "decreases"},
      {"measurement": "mature trivalent Pyr collagen crosslinks", "setting": "[7]; [10]", "value": "decreases"},
      {"measurement": "tolerability in preclinical toxicity studies", "setting": "[8]; 6 months", "value": "well tolerated"},
      {"measurement": "preclinical development including genotoxicity and toxicity studies", "setting": "[8]; in vivo", "value": "successfully passed"}
    ]}
  ]
}
